Test results from patent US12071411B2, “Inhibitors of HIF-2α and methods of use thereof” (ARCUS BIOSCIENCES, INC., priority 2021, dated 2024).

Key:
HIF-2α [1] = biological target: T1, HIF-2α (Homo sapiens, UniProt Q99814); test: HIF-2α Luciferase Reporter Assay (serum free) in HIF-Luc-786-0 cells; type: cell-based; conditions: Opti-MEM, 786-0 reporter cells, 20 hours incubation
Procedure: (§1) Generation of HIF-2α Luciferase 786-0 Cell Line:
(§2) Stable cell lines were generated by transducing 786-0 cells (ATCC, CRL-1932) with Cignal Lenti HIF Luc Reporter lentivirus (CLS-007L, Qiagen) according to the manufacturer's guidelines. In brief, 0.3×10^6 786-0 cells were transduced with lentivirus at a multiplicity of infection (MOI) of 25 for 24 hours. After transduction, cells were replenished with fresh RPMI 1640 Medium (Cat. No. 11875085, Thermo Fisher) supplemented with 10% FBS (Cat. No. A3160502, Gibco), 2 mM GlutaMAX™ (Cat. No. 35050-061, Invitrogen) and 100 units of penicillin and 100 μg of streptomycin/mL (Cat. No 15070063, Thermo Fisher) for another 24 hours. Antibiotic selection was performed in cell media containing 4 μg/mL of puromycin. After 7 days of antibiotic selection, stable pools of surviving cells were expanded and used in a luciferase reporter assay.
HIF-2α Luciferase Reporter Assay (Serum Free):
On day one, 20 uL of HIF-Luc-786-0 cells in Opti-MEM™ (Cat. No. 31985088, Thermo Fisher) were seeded into each well of a 384 well white opaque plate (Corning 3570) and incubated at 37° C. and 5% CO2. Twenty microliters of 2× test compounds in Opti-MEM™ were added to cells after 4 hours of incubation. Final assay conditions comprised 20,000 cells per well in 1% DMSO with test compound concentrations ranging from 50 uM to 0 uM. After 20 hours incubation at 37° C. and 5% CO2, luciferase activity was determined using ONE-Glo™ Luciferase Assay Reagent (E6110, Promega) following the manufacture's recommended procedure. Briefly, 40 uL of ONE-Glo™ luciferase reagents were added to each well and luciferase signals were measured using an Envision 2102 Multilabel Reader. Percentage maximum activity in each test well was calculated based on DMSO (maximum activity) and no cell control wells (baseline activity). The IC50 values of the test compounds were determined from compound dose response curves fitted using a standard four parameter fit equation.

HIF-2α [2] = biological target: T1, HIF-2α; test: HIF-2α Luciferase Reporter Assay (serum), HRE-luciferase 786-0 cells in 100% human serum; type: cell-based; conditions: for IC50: 100% human serum, 786-0 reporter cells, overnight incubation, read-out: Serum Potency; for Serum Shift (approximate): ratio of IC50 in 100% serum to IC50 in serum free conditions
Procedure: as §1, §2
HIF-2α Luciferase Reporter Assay (Serum):
An HRE-luciferase stable reporter 786-0 cell line was maintained in active culture using RPMI 1640 (GIBCO) media supplemented with 1% penicillin-streptomycin, 1% GlutaMAX™, 10% FBS-One Shot (GIBCO) and 4 ug/ml of puromycin (Invitrogen). On the day of the assay, cells were harvested using StemPro™ Accutase™ cell dissociation reagent (GIBCO) and resuspended at 1.5 million cells per milliliter in Opti-MEM™ (GIBCO). 20 ul/well of the resuspended cells were dispensed into a 384 white tissue culture-treated microplate (Corning) and allowed to incubate at 37° C., 5% CO2 for 3 hours. Compounds were prepared by dispensing 0.8 ul of compound in 100% DMSO into a Greiner plate containing 40 ul/well of 100% human serum (Bioreclamation IVT). After 3 hours, media was removed via centrifugation at 500 RPM for 30 seconds and 30 ul/well of compound diluted in human serum was added. The plate was incubated overnight at 37° C., 5% CO2. The following day, ONE-Glo™ was prepared per vendors instructions. The cell plate was removed from the incubator and the human serum was removed from the plate using centrifugation at 500 RPM for 30 seconds. Following the removal of human serum, 40 ul/well of room temperature Opti-MEM™ was added to the plate and allowed to equilibrate to room temperature for 2 hours. 40 ul/well of ONE-Glo™ reagent was added and allowed to incubate for 10 minutes before reading the luminescence signal on the Envision (PerkinElmer). Data was analyzed using 4-parameter logistic equation to generate IC50.

T1 sequence (Q99814 whole entry): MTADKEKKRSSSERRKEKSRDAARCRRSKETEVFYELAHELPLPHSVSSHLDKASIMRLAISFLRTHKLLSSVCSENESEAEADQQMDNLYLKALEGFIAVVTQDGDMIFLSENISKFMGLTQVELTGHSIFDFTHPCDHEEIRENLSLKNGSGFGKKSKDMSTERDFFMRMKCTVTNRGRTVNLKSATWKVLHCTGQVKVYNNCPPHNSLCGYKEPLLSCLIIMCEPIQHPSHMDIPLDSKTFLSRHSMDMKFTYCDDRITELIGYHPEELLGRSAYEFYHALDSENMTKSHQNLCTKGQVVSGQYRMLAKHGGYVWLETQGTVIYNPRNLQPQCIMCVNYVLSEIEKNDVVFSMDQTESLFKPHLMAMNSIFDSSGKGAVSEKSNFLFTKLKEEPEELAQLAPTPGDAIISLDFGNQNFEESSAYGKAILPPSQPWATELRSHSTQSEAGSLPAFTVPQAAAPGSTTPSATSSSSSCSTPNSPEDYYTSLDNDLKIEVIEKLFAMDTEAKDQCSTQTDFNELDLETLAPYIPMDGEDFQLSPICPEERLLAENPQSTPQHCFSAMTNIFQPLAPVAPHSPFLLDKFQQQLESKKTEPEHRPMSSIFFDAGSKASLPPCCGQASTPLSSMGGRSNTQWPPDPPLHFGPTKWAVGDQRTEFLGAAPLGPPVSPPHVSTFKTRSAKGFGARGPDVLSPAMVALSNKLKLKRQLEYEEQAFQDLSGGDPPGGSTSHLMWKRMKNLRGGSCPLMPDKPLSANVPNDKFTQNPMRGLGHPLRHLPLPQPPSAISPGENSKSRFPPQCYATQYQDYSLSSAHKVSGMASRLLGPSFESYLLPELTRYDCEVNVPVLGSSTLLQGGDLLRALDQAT

SMILES	IC50 (HIF-2α [1]) [µM]	IC50 (HIF-2α [2]) [µM]	Serum Shift (approximate) (HIF-2α [2])
O[C@H]1c2c(C(F)(F)F)nn(C3CC4(C3)CC(F)(F)C4)c2[C@H](F)[C@H]1F (single isomer, unassigned) [Example 135]	< 0.1	> 1	12
O[C@@H]1c2c(C(F)(F)F)nn([C@H]3CC[C@H](F)[C@H](F)C3)c2[C@H](F)C1(F)F (single isomer, unassigned) [Example 154]	< 0.1	0.1 to 1	9
O=S(=O)(CCn1nc(C(F)(F)F)c2c1CCC(F)(F)[C@H]2O)C(F)(F)F [Example 8, (4S)-5,5-difluoro-3-(trifluoromethyl)-1-[2-(trifluoromethylsulfonyl)ethyl]-6,7-dihydro-4H-indazol-4-ol]	< 0.1	0.1 to 1	4
COC(C)CCn1nc(C(F)(F)F)c2c1CCC(F)(F)[C@H]2O (stereo partly drawn) [Example 13, (4S)-5,5-difluoro-1-(3-methoxybutyl)-3-(trifluoromethyl)-6,7-dihydro-4H-indazol-4-ol]	0.1 to 1	0.1 to 1	2
CC(CCn1nc(C(F)(F)F)c2c1CCC(F)(F)[C@H]2O)OC(F)(F)F (stereo partly drawn) [Example 14, (4S)-5,5-difluoro-1-[3-(trifluoromethoxy)butyl]-3-(trifluoromethyl)-6,7-dihydro-4H-indazol-4-ol]	< 0.1	< 0.1	6
CC(CCn1nc(C(F)(F)F)c2c1CCC(F)(F)[C@H]2O)OC(F)F (stereo partly drawn) [Example 15, (4S)-1-[3-(difluoromethoxy)butyl]-5,5-difluoro-3-(trifluoromethyl)-6,7-dihydro-4H-indazol-4-ol]	< 0.1	< 0.1	6
O[C@H]1c2c(C(F)(F)F)nn(CCSC(F)F)c2CCC1(F)F [Example 18, (4S)-1-[2-(difluoromethylsulfanyl)ethyl]-5,5-difluoro-3-(trifluoromethyl)-6,7-dihydro-4H-indazol-4-ol]	0.1 to 1	0.1 to 1	4
O[C@H]1c2c(C(F)(F)F)nn(CCCOC(F)(F)F)c2CCC1(F)F [Example 30, (4S)-5,5-difluoro-1-[3-(trifluoromethoxy)propyl]-3-(trifluoromethyl)-6,7-dihydro-4H-indazol-4-ol]	< 0.1	0.1 to 1	8
CCC(CCn1nc(C(F)(F)F)c2c1CCC(F)(F)[C@H]2O)C(F)(F)F (stereo partly drawn) [Example 43, (4S)-5,5-difluoro-3-(trifluoromethyl)-1-[3-(trifluoromethyl)pentyl]-6,7-dihydro-4H-indazol-4-ol]	0.1 to 1	> 1	17
O[C@H]1c2c(C(F)(F)F)nn(CCCC(F)(F)F)c2CC[C@H]1F [Example 51, (4S,5R)-5-fluoro-1-(4,4,4-trifluorobutyl)-3-(trifluoromethyl)-4,5,6,7-tetrahydroindazol-4-ol]	0.1 to 1	0.1 to 1	3
O[C@H]1c2c(C(F)(F)F)nn(CCCC(F)(F)F)c2CC[C@@H]1F [Example 52, (4S,5S)-5-fluoro-1-(4,4,4-trifluorobutyl)-3-(trifluoromethyl)-4,5,6,7-tetrahydroindazol-4-ol]	0.1 to 1	> 1	7
O[C@H]1c2c(C(F)(F)F)nn(C3CCC(F)(F)CC3)c2CC1(F)F [Example 53, (4S)-1-(4,4-difluorocyclohexyl)-5,5-difluoro-3-(trifluoromethyl)-4,6-dihydrocyclopenta[c]pyrazol-4-ol]	< 0.1	0.1 to 1	7
CC(C#N)CCn1nc(C(F)(F)F)c2c1CC(F)(F)[C@H]2O (stereo partly drawn) [Example 55, 4-[(4S)-5,5-difluoro-4-hydroxy-3-(trifluoromethyl)-4,6-dihydrocyclopenta[c]pyrazol-1-yl]-2-methylbutanenitrile]	0.1 to 1	0.1 to 1	1
CS(=O)(=O)CCn1nc(C(F)(F)F)c2c1CC(F)(F)[C@H]2O [Example 56, (4S)-5,5-difluoro-1-(2-methylsulfonylethyl)-3-(trifluoromethyl)-4,6-dihydrocyclopenta[c]pyrazol-4-ol]	0.1 to 1	0.1 to 1	2
O=S1(=O)CC(Cn2nc(C(F)(F)F)c3c2CC(F)(F)[C@H]3O)C1 [Example 57, (4S)-1-[(1,1-dioxothietan-3-yl)methyl]-5,5-difluoro-3-(trifluoromethyl)-4,6-dihydrocyclopenta[c]pyrazol-4-ol]	0.1 to 1	0.1 to 1	2
O[C@H]1c2c(C(F)(F)F)nn(CC3CC3C(F)(F)F)c2CCC1(F)F (stereo partly drawn) [Example 59, (4S)-5,5-difluoro-3-(trifluoromethyl)-1-[[2-(trifluoromethyl)cyclopropyl]methyl]-6,7-dihydro-4H-indazol-4-ol]	0.1 to 1	> 1	7
CO[C@H](CCn1nc(C(F)(F)F)c2c1CC(F)(F)[C@H]2O)C(F)(F)F [Example 61, (4S)-5,5-difluoro-1-[(3R)-4,4,4-trifluoro-3-methoxybutyl]-3-(trifluoromethyl)-4,6-dihydrocyclopenta[c]pyrazol-4-ol]	< 0.1	< 0.1	
O[C@H]1c2c(C(F)(F)F)nn(CCCOC(F)(F)F)c2C[C@H]1F [Example 62, (4S,5R)-5-fluoro-1-[3-(trifluoromethoxy)propyl]-3-(trifluoromethyl)-5,6-dihydro-4H-cyclopenta[c]pyrazol-4-ol]	0.1 to 1	0.1 to 1	2
O[C@H]1c2c(C(F)(F)F)nn(CCCOC(F)(F)F)c2C[C@@H]1F [Example 63, (4S,5S)-5-fluoro-1-[3-(trifluoromethoxy)propyl]-3-(trifluoromethyl)-5,6-dihydro-4H-cyclopenta[c]pyrazol-4-ol]	0.1 to 1	> 1	4
O[C@H]1c2c(C(F)(F)F)nn([C@H]3C[C@@]4(CC4(F)F)C3)c2CC1(F)F [Example 64, (4S)-5,5-difluoro-1-[(3r,5r)-1,1-difluorospiro[2.3]hexan-5-yl]-3-(trifluoromethyl)-4,6-dihydrocyclopenta[c]pyrazol-4-ol]	< 0.1	> 1	12
O[C@H]1c2c(C(F)(F)F)nn([C@H]3C[C@]4(CC4(F)F)C3)c2CC1(F)F [Example 65, (4S)-5,5-difluoro-1-[(3s,5s)-1,1-difluorospiro[2.3]hexan-5-yl]-3-(trifluoromethyl)-4,6-dihydrocyclopenta[c]pyrazol-4-ol]	0.1 to 1	> 1	11
O[C@H]1c2c(C(F)(F)F)nn(C3CC4(C3)CC(F)(F)C4)c2CC1(F)F [Example 66, (4S)-1-{6,6-difluorospiro[3.3]heptan-2-yl}-5,5-difluoro-3-(trifluoromethyl)-4,6-dihydrocyclopenta[c]pyrazol-4-ol]	< 0.1	0.1 to 1	6
